# Columns and labels:
# Format in all cases: cell-based, human
# [1] = test system: 5i-hPSC; assay: Medium component screen and PD dose response on OCT4/SOX2 pluripotent phenotype, feeder-free adherent and suspension
# Description: For intracellular staining, dissociated cells were fixed with 4% paraformadehyde (Electron Microscopy Sciences) for 10 minutes and permeabilized with 0.1% Triton™ X-100 (Sigma-Aldrich). Cells were then stained with the primary antibody (OCT4, BD Biosciences; SOX2, R&D; FOXA2, Abnova; cTNT, Thermo Fisher Scientific; TUBB3, Cell Signaling; PDX1, R&D; NKX6.1, DSHB) for 25 minutes followed by the secondary antibody for 25 minutes at 4° C. Stained cells were analyzed on a FACSCanto™ II (BD) or FACS Fortessa™ (BD) flow cytometer.
# Statistical analysis was performed using the JMP software (SAS). Parametric tests were used for qpcr, doubling time, and maximum density experiments, with the Student's T-test used for 2 treatment experiments and Tukey's HSD test used for experiments with 3 or more treatments. A non-parametric test (Kruskal-Wallis) was used for colony formation experiments since this assay was developed specifically for this study. […] The linear regression model was developed in Excel (Microsoft®).
# To test this hypothesis, a 96 well plate platform was designed to screen the effects of medium components on 5i-hPSC pluripotency in suspension cultures and in feeder-free adherent cultures (FIG. 8A). To examine the effects of adherent culture on pluripotency, a Geltrex™ coating was used to obtain an adherent culture condition in the absence of a feeder layer. […]
# [2] = test system: PSC (HES2); assay: Orbital shaker suspension culture of PSC aggregates with dextran sulfate; settings: for aggregate control properties in PSC: data not shown
# Description: In brief, HES2 were cultured on Geltrex™ LDEV-Free Reduced Growth Factor Basement Membrane Matrix (Thermo Fisher Scientific, 1:50 dilution in DMEM) coated plates in Nutristem® hESC XF Culture Medium (Biological Industries, “NS”) or E8 Medium (Thermo Fisher Scientific), supplemented with 1× Penicillin-Streptomycin (Thermo Fisher Scientific). Plates were coated with Geltrex™ for 30 minutes at 37° C. Cells were passaged 1:24 every 6 days by dissociation with TrypLE™ Express (Thermo Fisher Scientific) at 37° C. for 4-5 minutes. All cell line stocks were confirmed negative for mycoplasma contamination. Conversion to a “naïve” hPSC state was performed as described previously^35. Dextran sulfate compounds (DS, Sigma) were prepared by dilution in deionized water at a stock concentration of 100 mg/mL followed by filter sterilization.
# (§1) Six well culture plates were pre-coated with 5% Pluronic F-68® (Thermo Fisher Scientific) for 30 minutes at 37° C. or overnight at 4° C. Dissociation of PSC to single cells was carried out by TrypLE™ Express (Thermo Fisher Scientific) treatment for 5 minutes at room temperature. Single cells were seeded into the Pluronic F-68® coated 6-well plates that were then placed on an orbital shaker with 10 μM Y-27632 (Reagents Direct) in normoxic (21% 02) conditions. Cells were seeded at densities of 2×10^5 cells/mL unless otherwise noted. Medium was exchanged by angling the plate at a 45° angle and allowing aggregates to settle onto the bottom edge. Two days after seeding, half of the growth medium was removed and replaced each day. Cells were harvested at the end of culture by dissociation with a 5 minute TrypLE™ treatment at 37° C. and cell counts were performed by Trypan Blue exclusion (Thermo Fisher Scientific). Bioreactor experiments were conducted following manufacturer instructions for operating the Ambr™-24 bioreactor system (Sartorius). Cell dissociation and medium exchange were performed as described above. Bioreactors were operated at 450 rpm and seeded with 4×10^5 cells/mL unless otherwise noted. Aggregates were analyzed using the Mastersizer™ 3000 particle analyzer (Malvern) according to manufacturer's instructions. Unless otherwise noted, the 560 μm aperture was used for analysis. Aggregates were dissociated and seeded into adherent conditions after 3 passages in suspension with DS. Directed differentiation into all three germ layers was performed as described previously for endoderm^40, mesoderm^41, and ectoderm^42 lineages. G-Band karyotyping was performed by WiCell.
# Statistical analysis was performed in Excel software (Microsoft®). […] Coefficient of variation was calculated by estimating the volume of each aggregate from its diameter, calculating the standard deviation of each treatment, and normalizing to the mean. […]
# [3] = test system: PSC (HES2); assay: Stirred tank bioreactor suspension culture of PSC with dextran sulfate; settings: stirred tank bioreactors seeded with DS, 3 passages
# Description: as §1, with “Bioreactors were operated at 450 rpm and seeded with 4×10^5 cells/mL unless otherwise noted.” left out, “Unless otherwise noted, the 560 μm aperture was used for analysis. Aggregates were dissociated and seeded into adherent conditions after 3 passages in suspension with DS. Directed differentiation into all three germ layers was performed as described previously for endoderm^40, mesoderm^41, and ectoderm^42 lineages. G-Band karyotyping was performed by WiCell.” left out
# Apoptosis analysis was conducted using Annexin V staining. […] Cells were analyzed on a FACS Canto™ II (BD) or FACS Fortessa™ (BD) flow cytometer. […]
# [4] = test system: PSC; assay: Karyotype and germ layer differentiation of DS treated PSC
# Description: Six well culture plates were pre-coated with 5% Pluronic F-68® (Thermo Fisher Scientific) for 30 minutes at 37° C. or overnight at 4° C. Dissociation of PSC to single cells was carried out by TrypLE™ Express (Thermo Fisher Scientific) treatment for 5 minutes at room temperature. […] Cells were seeded at densities of 2×10^5 cells/mL unless otherwise noted. Medium was exchanged by angling the plate at a 45° angle and allowing aggregates to settle onto the bottom edge. Two days after seeding, half of the growth medium was removed and replaced each day. Cells were harvested at the end of culture by dissociation with a 5 minute TrypLE™ treatment at 37° C. and cell counts were performed by Trypan Blue exclusion (Thermo Fisher Scientific). […] Aggregates were dissociated and seeded into adherent conditions after 3 passages in suspension with DS. Directed differentiation into all three germ layers was performed as described previously for endoderm^40, mesoderm^41, and ectoderm^42 lineages. G-Band karyotyping was performed by WiCell.
# [5] = test system: H9 hPSC; assay: Aggregation control by DS in conventional and naive conditions; settings: conventional and naive pluripotent states
# [6] = test system: HES2 and H9 cell lines; assay: 4i suspension culture supplemented with dextran sulfate; settings: dextran sulfate at seeding
# Description: HES2 and H9 hPSC were cultured in adherent conditions in 5i medium for >5 passages. Cells were dissociated with TrypLE™ as described previously and seeded as single cells into 4i medium in the presence of ROCK inhibitor into orbital shaker suspension culture plates (pre-treated with 5% Pluronic® F-68) in the presence of dextran sulfate at seeding. Half of the medium volume was exchanged every day starting on the second day by tilting the plate at a 45 degree angle and allowing cells to settle before removing half of the medium and replenishing it with fresh 4i medium without dextran sulfate.
compound,measurement,setting,value
"O=C(NOC[C@H](O)CO)c1ccc(F)c(F)c1Nc1ccc(I)cc1F [PD, N-[(2R)-2,3-dihydroxypropoxy]-3,4-difluoro-2-[(2-fluoro-4-iodophenyl)amino]-benzamide]",correlation of PD level to pluripotent phenotype,[1]; feeder-free adherent and suspension,negatively correlated
same,linear regression coefficient of PD level on OCT4/SOX2 expression,"[1]; model with growth format and interaction, 56 observations",−27.0584
dextran sulfate [DS],homogeneity of aggregate sizes,"[2]; orbital shaker, 4 days",reduced standard deviations and lower coefficients of variation of aggregate volume
same,aggregate diameter,"[2]; orbital shaker, DS of 4, 15 and 40 kDa at varied concentration",significantly reduced diameters in a dose-dependent fashion
same,expression of pluripotency markers Oct4 and Sox2,[3],> 85%
same,karyotype,"[4]; 9 passages (5 adherent, 4 suspension)",retained a normal karyotype
same,differentiation to three germ layers,[4]; after 9 passages with DS,maintained the ability to differentiate to cell types from all three germ layers
same,control of aggregation,[5],able to control H9 hPSC aggregation in both pluripotent states
same,mean aggregate size and variance relative to untreated conditions,[6],both observed to decrease
heparin,aggregate control properties in PSC,[2],displayed aggregate control properties
pentosan polysulfate,aggregate control properties in PSC,[2],displayed aggregate control properties
